In ChEMBL document CHEMBL1151281, “Botcinins A, B, C, and D, metabolites produced by Botrytis cinerea, and their antifungal activity against Magnaporthe grisea, a pathogen of rice blast disease” (2005) one finds MIC and Activity data, which are given here for six compounds.

In brackets after ≈: the same amount, converted by molar mass. Activity calls are given as the source filed them. The calls are words filed in the database; no cut-off is given here.

Assay [1] has as its system Pyricularia grisea. The assay is described as follows: Antifungal activity against Magnaporthe grisea IFO 30733 after 3 days. Format: functional. As to conditions: IFO 30733, 72 h.
Assay [2] concerns Pyricularia grisea. As to the kind of experiment: Antifungal activity against Magnaporthe grisea IFO 30733 at 800 uM after 3 days. Format: functional, organism-based.

As usually defined, the MIC is the lowest concentration found to suppress growth. Read a high MIC as a less susceptible organism. `CCCC[C@H](O)CCC(=O)O[C@@H]1[C@@H](C)[C@@H]2OC(=O)[C@H](C)[C@H](OC(C)=O)[C@@]2(C)O[C@H]1C` had an MIC in assay [1] of 100 µM (≈ 42.9 µg/mL).

In the case of `CC(=O)O[C@H]1[C@@H](C)C(=O)O[C@H]2[C@H](C)[C@@H](O)[C@H](C)O[C@@]21C`, in assay [2], the outcome was inactive.

`CCCC[C@H](O)/C=C/C(=O)O[C@@H]1[C@@H](C)[C@@H]2OC(=O)[C@H](C)[C@H](OC(C)=O)[C@@]2(C)O[C@H]1C` [BOTCININ A] registered a minimum inhibitory concentration (MIC) in assay [1] of 100 µM (≈ 42.7 µg/mL).

`CCCCCC[C@H](O)/C=C/C(=O)O[C@@H]1[C@@H](C)[C@@H]2OC(=O)[C@H](C)[C@H](OC(C)=O)[C@@]2(C)O[C@H]1C` [BOTCININ B]: the MIC in assay [1] is 12.5 µM (≈ 5.68 µg/mL).

In assay [1], `CCCCCC[C@H](O)/C=C/C(=O)O[C@@H]1[C@@H](C)[C@@H]2OC(=O)[C@@H](C)[C@H](OC(C)=O)[C@@]2(C)O[C@H]1C` [BOTCININ C] came in with an MIC of 100 µM (≈ 45.5 µg/mL).

`CCCC[C@H](O)/C=C/C(=O)O[C@@H]1[C@@H](C)[C@@H]2OC(=O)C(C)=C[C@@]2(C)O[C@H]1C` [BOTCININ D] had an MIC in assay [1] of 12.5 µM (≈ 4.58 µg/mL).
